Tests used:
MaDA1 = target: T1, MaDA1 (Morus alba, UniProt A0AAN0NNN7); assay: UPLC product assay; assay type: biochemical; details: oxidative cyclisation to moracin D; 20 mM Tris-HCl pH 8.0, 50 °C
T1 construct: N-terminal 6xHis-SUMO tag, Sf9 baculovirus; tag removed by TEV protease for crystallisation; dimer in crystal
T1 sequence (A0AAN0NNN7 24-539 limits assumed): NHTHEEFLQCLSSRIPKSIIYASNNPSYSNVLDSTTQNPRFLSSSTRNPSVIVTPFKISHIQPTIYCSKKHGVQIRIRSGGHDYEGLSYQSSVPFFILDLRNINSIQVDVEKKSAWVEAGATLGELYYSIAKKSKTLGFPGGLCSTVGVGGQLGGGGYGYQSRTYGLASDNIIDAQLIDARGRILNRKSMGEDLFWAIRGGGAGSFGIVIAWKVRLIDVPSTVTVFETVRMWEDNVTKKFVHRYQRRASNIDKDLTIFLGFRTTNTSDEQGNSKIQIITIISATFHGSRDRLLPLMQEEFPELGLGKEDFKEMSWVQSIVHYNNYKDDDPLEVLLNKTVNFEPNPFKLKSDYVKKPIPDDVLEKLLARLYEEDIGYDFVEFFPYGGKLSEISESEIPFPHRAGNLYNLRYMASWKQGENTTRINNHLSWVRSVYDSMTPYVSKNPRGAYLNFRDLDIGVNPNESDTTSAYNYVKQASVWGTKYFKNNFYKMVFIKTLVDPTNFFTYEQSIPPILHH

ancDADS = target: T2, ancDADS; assay: Lineweaver-Burk, UPLC product quantification; assay type: biochemical; details: competitive against moracin C (20–150 μM); 20 mM Tris-HCl pH 8.0; compound is also an alternative substrate
T2 construct: N-terminal 6xHis-SUMO tag, Sf9 baculovirus

[1] = target: Morus alba Diels-Alderase MaDA1 (Morus alba); assay: crystal structure; untagged MaDA1 at about 10 mg/mL, sitting drop vapor diffusion at 18 °C, 0.1 M Bis-Tris pH 5.5, 25% PEG3350

CC(C)=CCc1c(O)cc(-c2cc3ccc(O)cc3o2)cc1O [compound 1, moracin C]
UPLC product assay (MaDA1): two DAs (MaDA1 and MaDA4) and two DSs (MaDS1 and MaDS6) exhibit functional promiscuity

CC(C)=CCc1c(O)ccc(C(=O)/C=C/c2ccc(O)cc2O)c1O [compound 4, morachalcone A]
Ki (ancDADS): 7.34 µM

Morus alba Diels-Alderase MaDA1 (enzyme)
stoichiometry N [1]: 2

Source: article PMC10954736, “The evolutionary origin of naturally occurring intermolecular Diels-Alderases from Morus alba” (Nature Communications, 2024)
